# Results published in article PMC10631261 (Chemical Science, 2023).
# Like-named read-outs stand apart in the source and are kept apart here.
# Legend:
# EPO = experiment: qRT-PCR of EPO expression in Hep3B cells; assay type: cell-based, human; settings: for upregulation of EPO: qPCR, relative to DMSO
# Description: (§1) 4. Methods for cell studies […]
# (§2) in Minimum Essential Medium (MEM, GIBCO) with 10% fetal bovine serum (FBS, BI), 100 U/mL penicillin and 100 μg/mL streptomycin (1 × P/S, NCM Biotech). […]
# (§3) and 100 μg/mL streptomycin (1 × P/S, NCM Biotech).
# (§4) Quantitative PCR Analysis of Gene Expression […]
# (§5) treated with vehicle (DMSO) or an inhibitor (at the concentrations indicated) for 12 h. Total RNA was isolated from cells and tissues using Trizol regents (Vazyme, China). 1 μg RNA was used for reverse transcription using HiScript III RT SuperMix for qPCR (Vazyme, China). cDNAs were amplified in a ChamQ Universal SYBR qPCR Master Mix (Vazyme, China). Quantitative PCR (qPCR) was performed on […]
# (§6) a ABI QuantStudio 3 system.
# (§7) The relative amount of mRNA was calculated after
# (§8) 3T3-L1 derived adipocytes. […]
# [1] = tested on: 3T3-L1 derived adipocytes; experiment: Cellular triglyceride (TG) colorimetric assay; assay type: cell-based
# Description: as §1, §2
# and 100 μg/mL streptomycin (1 × P/S, NCM Biotech). […]
# 3T3-L1 derived adipocytes.
# 10% newborn calf serum (NCS, GIBCO), 100 U/mL penicillin and 100 μg/mL streptomycin (1 × P/S, NCM […]
# The 3T3-L1 cells were strictly subcultured before they
# Subcultures of 3T3 -L1 cells were routinely cultured in DMEM medium containing 10% NCS for two days, and then the cells were cultured in DMEM containing 10% FBS, 0.5 mM 3 -isobutyl-1-methylxanthine, 1 μM dexamethasone, 10 μg/mL insulin and 2 μM rosiglitazone for another two days. Subsequently, the cells were cultured in DMEM containing 10% FBS and 10 μg/mL insulin for two days. After these procedures, the cells were maintained in […]
# To investigate the effect of inhibitors on adipocytes, 3T3-L1-derived adipocytes were treated with vehicle (DMSO) or with an inhibitor (at the concentrations indicated) for 48 h. […]
# Cellular TG level assay for 3T3 -L1 derived adipocytes.
# The 3T3-L1-derived adipocytes were washed with PBS, then the cells were lysed. And then, the cellular TG level was determined by using a cellular triglyceride assay kit (Applygen, China).
# Oil Red O staining for 3T3-L1 derived adipocytes.
# EGLN3 [2] = experiment: qRT-PCR of EGLN3 expression in Hep3B cells; assay type: cell-based, human; settings: for increase of EGLN3 expression relative to DMSO: 50 μM, 12 h, qRT-PCR
# Description: as §1, §2, §3, §4, §5, §6, §7, §8
# CA9 = experiment: qRT-PCR of CA9 expression in Hep3B cells; assay type: cell-based, human; settings: for upregulation of CA9: qPCR, relative to DMSO
# Description: as §1, §2, §3, §4, §5, §6, §7, §8
# SLC2A1 = experiment: qRT-PCR of SLC2A1 expression in Hep3B cells; assay type: cell-based, human; settings: for increase of SLC2A1 levels: qPCR, relative to DMSO
# Description: as §1, §2, §3, §4, §5, §6, §7, §8
# EGLN3 [3] = experiment: qRT-PCR of EGLN3 expression in 786-O cells; assay type: cell-based; settings: VHL-deficient 786-O cells
# Description: as §1, §2, §3, §4, §5, §6, §7, §8
# FIH [4] = target: T1, FIH (Homo sapiens, UniProt Q9NWT6); settings: ESI Table S1; ref 19 (ESI); cited from earlier work
# T1 construct: made in house
# T1 sequence (Q9NWT6 whole entry): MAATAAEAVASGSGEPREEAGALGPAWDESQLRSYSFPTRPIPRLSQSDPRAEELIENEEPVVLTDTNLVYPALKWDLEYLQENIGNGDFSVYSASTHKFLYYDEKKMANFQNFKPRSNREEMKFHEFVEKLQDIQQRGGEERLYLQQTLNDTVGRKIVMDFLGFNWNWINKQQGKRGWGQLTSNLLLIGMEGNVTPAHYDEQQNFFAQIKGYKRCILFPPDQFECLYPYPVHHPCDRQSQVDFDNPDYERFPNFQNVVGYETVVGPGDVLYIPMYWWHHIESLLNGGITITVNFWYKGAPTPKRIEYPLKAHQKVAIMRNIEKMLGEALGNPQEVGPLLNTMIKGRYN
# AspH [5] = target: T2, AspH (Homo sapiens, UniProt Q12797); settings: SPE-MS; ref [58]; cited from earlier work
# T2 sequence (Q12797 315-758): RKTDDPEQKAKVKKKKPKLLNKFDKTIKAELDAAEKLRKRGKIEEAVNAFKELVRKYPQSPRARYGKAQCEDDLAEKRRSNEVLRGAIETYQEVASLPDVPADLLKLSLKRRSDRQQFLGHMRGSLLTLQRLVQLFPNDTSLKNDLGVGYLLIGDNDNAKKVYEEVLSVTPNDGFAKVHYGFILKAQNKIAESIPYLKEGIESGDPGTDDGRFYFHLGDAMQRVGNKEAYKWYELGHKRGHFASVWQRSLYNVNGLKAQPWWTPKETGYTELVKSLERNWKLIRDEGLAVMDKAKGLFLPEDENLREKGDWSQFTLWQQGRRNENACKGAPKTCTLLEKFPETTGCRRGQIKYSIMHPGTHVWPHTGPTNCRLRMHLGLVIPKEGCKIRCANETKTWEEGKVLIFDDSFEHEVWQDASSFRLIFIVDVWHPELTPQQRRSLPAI
# FIH [6] = target: T1, FIH; experiment: SPE-MS FIH inhibition assay; assay type: biochemical; settings: for FIH inhibition potency relative to 2,4-PDCA (more potent): IC50 comparison with 2,4-PDCA
# Description: (§9) Protein production and purification
# (§10) PAGE analysis) according to established procedures.
# (§11) FIH, PHD2, AspH, JMJD5 and KDM4A inhibition assays
# (§12) The in vitro FIH,1, 2 PHD2,1 AspH,38 JMJD536 and KDM4A39 inhibition assays were performed as […]
# (§13) KDM4A). Synthetic peptide substrates were used: HIF-1α C-terminal transactivation domain fragment […]
# (§14) H3Lys9 bearing three methyl groups at the N ϵ position, H3Lys4 substituted by an Ala and H3Lys14 substituted by an Ile residue) for KDM4A.39 Peptides were prepared as C-terminal amides by GL Biochem (Shanghai) Ltd. Peptide hydroxylation in the case of FIH, PHD2, AspH and JMJD5 (+16 Da mass shift) or peptide demethylation in the case of KDM4A ( -14 Da mass shift) was monitored by SPE-MS. […]
# KDM4A = KDM4A (Homo sapiens, UniProt O75164); experiment: biochemical; assay type: biochemical
# Sequence of KDM4A (O75164 1-359): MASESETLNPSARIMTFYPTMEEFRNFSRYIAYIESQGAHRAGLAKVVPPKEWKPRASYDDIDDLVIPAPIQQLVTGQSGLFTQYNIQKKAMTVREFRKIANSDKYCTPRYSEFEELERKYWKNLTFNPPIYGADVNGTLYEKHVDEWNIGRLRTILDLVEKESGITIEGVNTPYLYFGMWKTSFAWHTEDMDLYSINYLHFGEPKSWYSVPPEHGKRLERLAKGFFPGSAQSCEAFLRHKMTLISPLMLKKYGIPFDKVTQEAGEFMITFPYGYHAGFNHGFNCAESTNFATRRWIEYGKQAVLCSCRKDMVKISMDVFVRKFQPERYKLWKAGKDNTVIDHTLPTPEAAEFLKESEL
# Description: (§15) To investigate the potential of BNS for selective FIH inhibition, its selectivity was investigated with respect to other 2OG-dependent protein oxidising enzymes, that is PHD2, Jumonji-C domain-containing protein 5 (JMJD5), aspartate/asparagine-β-hydroxylase (AspH) and KDM4A, using reported SPE-MS inhibition assays.[58,61,69,70] In addition to PHD2 and KDM4A, we included AspH and JMJD5 in our selectivity studies, because AspH, like FIH, catalyses protein aspartate- and asparagine-residue hydroxylation (although in epidermal growth factor-like domains),[71,72] and because JMJD5 is structurally closely related to FIH.[73,74]
# (§16) 3. Biochemical procedures
# as §9, §10, §11, §12, §13, §14
# AspH [7] = target: T2, AspH; experiment: biochemical
# Description: as §15, §16, §9, §10, §11, §12, §13, §14
# JMJD5 = JMJD5 (Homo sapiens, UniProt Q8N371); experiment: biochemical
# Sequence of JMJD5 (Q8N371 whole entry): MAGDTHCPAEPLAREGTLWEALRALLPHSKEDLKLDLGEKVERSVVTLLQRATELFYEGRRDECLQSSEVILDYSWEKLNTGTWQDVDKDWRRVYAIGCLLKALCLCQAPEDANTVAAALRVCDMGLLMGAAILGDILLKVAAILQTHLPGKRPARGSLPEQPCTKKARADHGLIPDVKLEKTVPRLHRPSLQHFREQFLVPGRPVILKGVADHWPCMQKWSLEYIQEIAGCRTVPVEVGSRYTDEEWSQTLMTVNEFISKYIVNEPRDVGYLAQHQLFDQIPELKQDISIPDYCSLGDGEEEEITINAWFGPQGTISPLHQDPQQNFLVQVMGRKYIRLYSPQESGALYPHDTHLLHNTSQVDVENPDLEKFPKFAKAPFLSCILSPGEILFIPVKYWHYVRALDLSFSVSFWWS
# Description: as §15, §16, §9, §10, §11, §12, §13, §14
# PHD2 = PHD2 (Homo sapiens, UniProt Q9GZT9); experiment: biochemical
# Sequence of PHD2 (Q9GZT9 181-426): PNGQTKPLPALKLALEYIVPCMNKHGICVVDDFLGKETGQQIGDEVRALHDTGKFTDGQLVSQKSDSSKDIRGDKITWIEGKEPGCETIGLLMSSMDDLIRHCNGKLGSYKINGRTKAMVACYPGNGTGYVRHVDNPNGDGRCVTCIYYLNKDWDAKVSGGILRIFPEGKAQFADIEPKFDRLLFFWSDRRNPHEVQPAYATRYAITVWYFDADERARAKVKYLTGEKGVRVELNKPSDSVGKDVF
# Description: as §16, §9, §10, §11, §12, §13, §14
# [8] = IC50 comparison with compound 20
Structure (SMILES),melting point,IC50 (FIH [6]) [µM],IC50 (AspH [7]) [µM],IC50 (PHD2) [µM],IC50 (KDM4A) [µM],IC50 (JMJD5; read-out: JMJD5 IC50) [µM],also measured
O=C(O)Cc1cs/c(=N\C(=O)CNC(=O)c2ccccc2)n1O (hydrate or solvate) [compound 16],181 to 183 °C,–,–,–,–,–,–
O=C(O)Cc1cs/c(=N\C(=O)CCNS(=O)(=O)c2ccccc2)n1O (hydrate or solvate) [compound 20],178 to 180 °C,–,–,–,–,–,–
O=C(O)Cc1cs/c(=N\C(=O)C2CCCN2S(=O)(=O)c2ccccc2)n1O (stereo not shown) (hydrate or solvate) [compound 28],> 190 °C (dec.),–,–,–,–,–,–
CC1(C(=O)/N=c2\scc(CC(=O)O)n2O)CCN(S(=O)(=O)c2ccccc2)C1 (stereo not shown) (hydrate or solvate) [compound 29],158 to 161 °C,–,–,–,–,–,–
O=C(O)Cc1csc(=NC(=O)C2CCN(S(=O)(=O)c3cccc(Cl)c3)C2)n1O (stereo not shown) (hydrate or solvate) [compound 34],178 to 182 °C,–,–,–,–,–,–
O=C(O)Cc1csc(=NC(=O)C2CCN(S(=O)(=O)c3ccc(Cl)cc3)C2)n1O (stereo not shown) (hydrate or solvate) [compound 35],195 to 197 °C,–,–,–,–,–,–
COc1ccc(S(=O)(=O)N2CCC(C(=O)N=c3scc(CC(=O)O)n3O)C2)cc1 (stereo not shown) (hydrate or solvate) [compound 36],180 to 183 °C,–,–,–,–,–,–
O=C(O)Cc1csc(=NC(=O)C2CCN(S(=O)(=O)c3ccc(C(F)(F)F)cc3)C2)n1O (stereo not shown) (hydrate or solvate) [compound 37],183 to 185 °C,–,–,–,–,–,–
O=C(O)Cc1csc(=NC(=O)C2CCN(S(=O)(=O)c3ccc4ccccc4c3)C2)n1O (stereo not shown) (hydrate or solvate) [compound 40],181 to 184 °C,–,–,–,–,–,–
O=C(O)Cc1csc(=NC(=O)C2CCN(S(=O)(=O)c3cccs3)C2)n1O (stereo not shown) (hydrate or solvate) [compound 41],178 to 180 °C,–,–,–,–,–,–
"COC(=O)C(=O)N[C@H](Cc1ccccc1)C(=O)OC [DM-NOFD, dimethyl N-oxalyl-D-phenylalanine]",–,–,–,–,–,–,"upregulation of EPO (EPO): no response; EPO levels in combination with FG-4592 compared with FG-4592 alone (EPO; with FG-4592, to a lesser extent than CA9): increase; effect on TG levels ([1]; 100 μM): no effect; increase of EGLN3 expression relative to DMSO (EGLN3 [2]): ~1.8 fold; EGLN3 upregulation on co-administration with FG-4592 relative to compound alone (EGLN3 [2]): no additional effect; upregulation of CA9 (CA9): no response; CA9 levels in combination with FG-4592 compared with FG-4592 alone (CA9; with FG-4592): increase; increase of SLC2A1 levels (SLC2A1): ~1.3 fold; SLC2A1 gene expression in combination with FG-4592 (SLC2A1; with FG-4592): no synergistic effect; effect on EGLN3 gene expression (EGLN3 [3]): upregulation of EGLN3"
Cc1nc(C(=O)NCC(=O)O)c(O)c2ccc(Oc3ccccc3)cc12 [FG-4592],–,–,–,–,–,–,upregulation of EPO (EPO): ~7 fold; effect on Hep3B EGLN3 levels (EGLN3 [2]; compound alone): no effect; upregulation of CA9 (CA9): ~8 fold; increase of SLC2A1 levels (SLC2A1): ~4 fold; IC50 (FIH [4]): > 100 µM
"O=C(O)CNC(=O)C(=O)O [NOG, N-oxalylglycine, reference compound]",–,0.36 ± 0.03,–,–,–,–,"IC50 (AspH [5]): 1.1 ± 0.3 µM; IC50 (KDM4A; 0.15 μM KDM4A, 10.0 μM 2OG, 10.0 μM H3 1–15 K9me3, SPE-MS): 22.1 ± 1.1 µM"
O=C(O)Cc1cs/c(=N\C(=O)CCNC(=O)c2ccccc2)n1O [compound 17],180 to 183 °C,4.6 ± 0.7,28.3 ± 6.5,3.6 ± 0.4,> 100,–,loss in FIH inhibition relative to 20 (FIH [6]; [8]): ~5 fold; IC50 (JMJD5): 4.6 ± 1.7 µM
O=C(O)Cc1cs/c(=N\C(=O)CNS(=O)(=O)c2ccccc2)n1O [compound 19],178 to 180 °C,3.7 ± 1.5,3.1 ± 0.4,15.5 ± 4.6,17.4 ± 0.2,12 ± 0.6,loss in FIH inhibition relative to 20 (FIH [6]; [8]): ~4 fold
O=C(O)Cc1cs/c(=N\C(=O)C2CN(S(=O)(=O)c3ccccc3)C2)n1O [compound 24],170 to 173 °C,0.45 ± 0.17,60.9 ± 24.1,5.2 ± 0.7,> 100,29.1 ± 4.4,selectivity for FIH inhibition over PHD2 inhibition (FIH [6]; as judged by IC50 values): 12 fold
CC1(C(=O)/N=c2\scc(CC(=O)O)n2O)CN(S(=O)(=O)c2ccccc2)C1 [compound 25],156 to 158 °C,1.2 ± 0.2,> 100,33.5 ± 1,> 100,32.6 ± 6.7,–
O=C(O)Cc1csc(=NC(=O)C2CCN(S(=O)(=O)c3ccccc3)C2)n1O (stereo not shown) [compound 26],185 to 187 °C,0.5 ± 0.02,37.8 ± 11.3,12.4 ± 0.8,> 100,12.5 ± 1,"selectivity for FIH with respect to PHD2, JMJD5, AspH and KDM4A inhibition (FIH [6]): > 25 fold; increase of FIH inhibition potency relative to 20 (FIH [6]; [8]): ~2 fold; selectivity for FIH inhibition over AspH inhibition (FIH [6]; as judged by IC50 values): ~75 fold; selectivity for FIH inhibition over JMJD5 inhibition (FIH [6]; as judged by IC50 values): ~25 fold; selectivity for FIH inhibition over PHD2 inhibition (FIH [6]; as judged by IC50 values): ~25 fold"
O=C(O)Cc1csc(=NC(=O)C2CCN(S(=O)(=O)c3ccc(-c4ccccc4)cc3)C2)n1O (stereo not shown) [compound 38],180 to 183 °C,0.26 ± 0.01,30.2 ± 10.9,3.1 ± 0.1,> 100,31.9 ± 2,"increase of EGLN3 expression relative to DMSO (EGLN3 [2]): ~2.5 fold; EGLN3 upregulation on co-administration with FG-4592 relative to compound alone (EGLN3 [2]): greater increase; FIH inhibition potency relative to 2,4-PDCA (more potent) (FIH [6]): ~10 fold; selectivity for FIH inhibition over AspH inhibition (FIH [6]; as judged by IC50 values): > 100 fold; selectivity for FIH inhibition over KDM4A inhibition (FIH [6]; as judged by IC50 values): > 300 fold; effect on EGLN3 gene expression (EGLN3 [3]): upregulation of EGLN3"
O=C(O)Cc1csc(=NC(=O)C2CCN(S(=O)(=O)c3ccc(Oc4ccccc4)cc3)C2)n1O (stereo not shown) [compound 39],179 to 183 °C,0.29 ± 0.03,29.8 ± 4.3,3.1 ± 0.2,> 100,8.6 ± 0.2,"increase of EGLN3 expression relative to DMSO (EGLN3 [2]): ~2.5 fold; EGLN3 upregulation on co-administration with FG-4592 relative to compound alone (EGLN3 [2]): no additional effect; FIH inhibition potency relative to 2,4-PDCA (more potent) (FIH [6]): ~10 fold; selectivity for FIH inhibition over AspH inhibition (FIH [6]; as judged by IC50 values): > 100 fold; selectivity for FIH inhibition over KDM4A inhibition (FIH [6]; as judged by IC50 values): > 300 fold; effect on EGLN3 gene expression (EGLN3 [3]): upregulation of EGLN3"
O=C(O)Cc1csc(=NC(=O)C2CCN(S(=O)(=O)C3CCCC3)C2)n1O (stereo not shown) [compound 43],177 to 180 °C,0.81 ± 0.18,35.5 ± 3.2,9.9 ± 0.5,> 100,17.4 ± 6,–
CC[C@H]1[C@@H](O)[C@@H]2[C@H](CC[C@]3(C)[C@@H]([C@H](C)CCC(=O)O)CC[C@@H]23)[C@@]2(C)CC[C@@H](O)C[C@@H]12 [obeticholic acid],–,–,–,–,–,–,reduction in cellular TG levels ([1]; 20 μM): 25%
